Reference: patent US11591330B2, “HIF-2a small-molecule inhibitor and use thereof” (China Medical University, priority 2018, dated 2023)

What was measured:
[1] = system: human breast cancer MCF-7 cells; assay: MTT/CCK8 cell proliferation analysis; type: cell-based
Experimental: (§1) MCF-7 and OVCAR-3 cells were taken out from liquid nitrogen, thawed in a water bath at 37° C., and centrifuged at 1000 rpm for 5 min, the supernatant was removed, 1 ml of DMEM medium with 10% fetal bovine serum was added to MCF-7 cells, the cell suspension was transferred into a 25 cm2 cells culture flask, and a medium with 10% fetal bovine serum was added for culture.
(§2) Well-growing human breast cancer MCF-7 cells, human breast cancer stem cell-like cell MCF-7 MS cells, human ovarian cancer OVCAR-3 cells, human ovarian cancer stem cell-like cell OVCAR-3 cells were taken, digested, resuspended, and inoculated in a 96-well plate with the number of cells per well being 5×10^3; after 24 hours of culture, different concentrations of ComA, ComA combined with PTX, or ComA combined with DDP were administrated for treating the cells for 48 hours, with 3 replicate wells for each concentration; 5 mg/ml of MTT/cck8 was added for treatment for 2 h, followed by shaking for 10 min in a shaker; the absorbance at 570 nm (for measuring MTT)/450 nm (for measuring CCK8) was measured with a microplate reader, the inhibition rate was calculated according to the formula: inhibition rate %=[1−(dosing well-zero adjustment well)/(control well-zero adjustment well)]*100%; IC50 was calculated with SPSS16.0 software, and the experiment was repeated three times.

[2] = system: human ovarian cancer OVCAR-3 cells; assay: MTT/CCK8 cell proliferation analysis; type: cell-based; details: MTT/cck8, FIG. 5
Experimental: as §1, §2

[3] = system: human breast cancer stem cell-like MCF-7 MS cells; assay: MTT/CCK8 cell proliferation analysis; type: cell-based
Experimental: (§3) When MCF-7 or OVCAR-3 cells grew to 70%-80%, the medium was discarded, PBS was added for washing 3 times, and trypsin was added for digestion for 1 min; the DMEM medium containing 10% fetal calf serum was added to stop the digestion, centrifuged at 1000 rpm for 5 min, the supernatant was discarded, PBS was added to resuspend cells, centrifuged at 1000 rpm for 5 min, the supernatant was discarded, 2 ml DMEM-F12 conditioned medium was added to resuspend cells, and the cells were cultured in suspension at 37° C., 5% CO2 in a constant-humidity environment.
as §2

[4] = system: human ovarian cancer stem cell-like OVCAR-3 MS cells; assay: MTT/CCK8 cell proliferation analysis; type: cell-based
Experimental: as §3, §2

HIF-2α = target: T1, HIF-2α (Homo sapiens, UniProt Q99814); assay: Western blot analysis of HIF-2α expression in MCF-7 MS cells; type: cell-based; details: 48 h, FIG. 8
T1 construct: endogenous in cells; host or cells: MCF-7 MS (mammosphere / stem cell-like cells induced from human breast cancer MCF-7)
T1 sequence (Q99814 whole entry): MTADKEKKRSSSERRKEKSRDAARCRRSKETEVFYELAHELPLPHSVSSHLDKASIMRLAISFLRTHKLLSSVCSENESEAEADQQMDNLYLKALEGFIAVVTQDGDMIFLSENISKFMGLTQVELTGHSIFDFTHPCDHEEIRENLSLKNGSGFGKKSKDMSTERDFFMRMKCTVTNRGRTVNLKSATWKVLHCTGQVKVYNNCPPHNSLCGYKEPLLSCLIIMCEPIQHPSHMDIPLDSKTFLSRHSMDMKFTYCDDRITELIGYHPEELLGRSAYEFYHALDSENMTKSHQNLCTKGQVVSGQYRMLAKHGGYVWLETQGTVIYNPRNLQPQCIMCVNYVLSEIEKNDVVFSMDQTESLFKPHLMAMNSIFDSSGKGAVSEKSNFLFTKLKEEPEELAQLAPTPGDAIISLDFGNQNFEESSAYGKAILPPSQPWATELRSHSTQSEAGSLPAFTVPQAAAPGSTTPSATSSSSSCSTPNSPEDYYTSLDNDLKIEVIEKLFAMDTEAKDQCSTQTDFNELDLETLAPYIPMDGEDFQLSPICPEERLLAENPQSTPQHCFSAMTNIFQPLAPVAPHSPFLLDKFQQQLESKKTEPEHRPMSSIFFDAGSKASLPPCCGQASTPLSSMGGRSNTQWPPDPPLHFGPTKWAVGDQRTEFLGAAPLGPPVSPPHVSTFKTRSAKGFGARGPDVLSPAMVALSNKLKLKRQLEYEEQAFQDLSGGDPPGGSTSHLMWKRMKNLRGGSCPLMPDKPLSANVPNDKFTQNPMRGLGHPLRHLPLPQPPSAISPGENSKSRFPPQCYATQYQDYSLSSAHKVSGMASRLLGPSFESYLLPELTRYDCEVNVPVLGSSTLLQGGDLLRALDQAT
Experimental: (§4) The human breast cancer stem cell-like MCF7 MS cells were divided into control (Ctrl) group, PTX alone treatment group, ComA alone treatment group, and ComA combined with PTX treatment group, treated for 48 h, and then collected; the cells were washed twice with pre-cooled 1×PBS, and PBS was discarded; 100-200 μl RIPA cell lysis solution (RIPA cell lysis solution:Protease inhibitor cocktail=250:1) was added according to the amount of cells; the mixture was transferred to an EP tube for lysis on ice for 40-60 min, and centrifuged at 4° C. at 12000 rpm/min for 15 minutes; and the supernatant was taken and stored at −80° C. for later use.
(§5) Protein standard curve was prepared (in a 96-well plate), with the configuration system and absorbance shown in the table below, wherein the protein solution was placed at 37° C. and shaken for 30 min, the OD value was measured at 570 nm wavelength, and the protein standard curve was drawn: the abscissa being the standard protein content, and the ordinate being the absorbance value (OD value) under the 570 nm wavelength, thereby drawing a standard curve.
(§6) The samples were treated with 6× protein loading buffer. According to the quantified protein concentration, 30 μl:50 μg protein sample per well was loaded, the well was filled with PBS up to 30 μl when the sample was insufficient, and the samples were denatured in a metal bath at 100° C. for 10 min. […]

HIF-1α = assay: Western blot analysis of HIF-1α expression in MCF-7 MS cells; type: cell-based, human; details: 48 h, FIG. 8
Experimental: as §4, §5, §6

Cc1ccn2c(=O)cc(CN(Cc3ccccc3)Cc3ccco3)nc2c1 [ComA]
inhibitory activity on proliferation ([1]; MCF-7 cells, MTT/cck8, FIG. 4): obvious inhibitory activity | time dependence of anti-tumor cell and anti-tumor stem cell activity ([1]; stated for tumor cells and tumor stem cells together): obviously time-dependent | inhibitory activity on proliferation [2]: obvious inhibitory activity | enhancement of the inhibitory effect of paclitaxel (PTX) ([3]; ComA combined with PTX, 48 hours, FIG. 6): can enhance the inhibitory effect | inhibitory activity on proliferation ([3]; MTT/cck8, FIG. 4): obvious inhibitory activity | enhancement of the inhibitory effect of cisplatin (DDP) ([4]; ComA combined with DDP, 48 hours, FIG. 7): can enhance the inhibitory effect | inhibitory activity on proliferation ([4]; MTT/cck8, FIG. 5): obvious inhibitory activity | expression of HIF-2α (HIF-2α; ComA alone): obviously inhibited the expression of HIF-2α | expression of HIF-2α (HIF-2α; ComA combined with PTX): obviously inhibited the expression of HIF-2α | expression of HIF-1α (HIF-1α): no obvious inhibitory effect
